According to PMC8191290, “Substrate specificities and reaction kinetics of the yeast oligosaccharyltransferase isoforms” (The Journal of Biological Chemistry, 2021):

Legend:
OST6 complex = molecular target: T1, OST6 complex (Saccharomyces cerevisiae, UniProt P39007); assay: Synthetic LLO preferences and OST activity comparison, OST6 complex; assay type: biochemical; conditions: OST6 complex 0.5 μM, 25 μM TAMRA-YANATS, 50 μM LLO; n = 3
T1 construct: were purified separately from strains expressing only one type of complex; made in house; host or cells: Saccharomyces cerevisiae, BY4742-derived strain ost3::LEU2MX6 OST4-1D4::kanMX6 YEp352-OST6
Method: (§1) Figure 5 OST3 complex turns over both glycosylation substrates faster than the OST6 complex, but with similar substrate affinities.A, enzyme activity of OST3 and OST6 complexes. Reactions were performed with 25 μM peptide TAMRA-YANATS, 50 μM LLO C20, and varying concentrations of purified OST3 complex (blue) or OST6 complex (red). Glycopeptide product was measured by UPLC and initial rates of reaction were determined by linear regression of the initial phase of the reaction. Turnover rates were determined by linear regression of the initial rates of reaction measured across the enzyme concentrations of 0.01–0.1 μM for OST3 complex and 0.1–0.5 μM for OST6 complex. Error bars indicate standard deviations from the mean of three reaction sets (n = 3). B, synthetic LLO preferences of OST3 and OST6 complexes. […] Turnover rates were determined by linear regression of the initial phase of the reaction and accounting for the enzyme concentration in the reaction. […] C, quantification of kinetic parameters for the synthetic LLO C20. […] Turnover rates were determined by linear regression of the initial phase of the reaction and accounting for the enzyme concentration in the reaction. […] D, quantification of kinetic parameters for the peptide TAMRA-YANATS. […] Turnover rates were determined by linear regression of the initial phase of the reaction and accounting for the enzyme concentration in the reaction. […]

OST3 complex = molecular target: T2, OST3 complex (Saccharomyces cerevisiae, UniProt P39007); assay: Synthetic LLO preferences, OST3 complex; assay type: biochemical; conditions: OST3 complex 0.09 μM, 25 μM TAMRA-YANATS, 50 μM LLO; n = 3
T2 construct: were purified separately from strains expressing only one type of complex; made in house; host or cells: Saccharomyces cerevisiae, BY4742-derived strain ost6::LEU2MX6 OST4-1D4::kanMX6 YEp352-OST3
Method: as §1

CC(=O)N[C@H]1[C@@H](OP(=O)(O)OP(=O)(O)OC/C=C(\C)CC/C=C(\C)CCC=C(C)C)O[C@H](CO)[C@@H](O[C@@H]2O[C@H](CO)[C@@H](O)[C@H](O)[C@H]2NC(C)=O)[C@@H]1O [LLO C15] was tested, and the “turnover rate ranking among LLO analogs” value (OST6 complex) was “lowest reaction rates” and the “turnover rate ranking among LLO analogs” value (OST3 complex) was “lowest reaction rates”.
